Reference: PubChem BioAssay AID1918995 (Molecular Pharmacology Branch, DTP, NCI, 2023)

Test system: 324938-238-R-J1-PDC complex spheroid growth, % test/control
Experiment: Anticancer human tumor 324938-238-R-J1-PDC patient-derived bladder carcinoma cell line growth inhibition [AhR]
Conditions: for IC50: curve of first compound; for viability, T/C: stronger effect = lower value
How it was run: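 Spheroids combined tumor cells with HUVEC endothelial cells and human MSCs as stroma. AhR antagonists were paired with standard or investigational drugs, each dosed in half-log steps down from near clinical Cmax, or from 10 microM where Cmax was unknown.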

[1] = second compound 0.1 µM, first compound 0.0316 µM
[2] = second compound 0.1 µM, first compound 0.1 µM
[3] = second compound 0.1 µM, first compound 0.316 µM
[4] = second compound 0.1 µM, first compound 1 µM
[5] = second compound 0.316 µM, first compound 0.0316 µM
[6] = second compound 0.316 µM, first compound 0.1 µM
[7] = second compound 0.316 µM, first compound 0.316 µM
[8] = second compound 0.316 µM, first compound 1 µM
[9] = second compound 1 µM, first compound 0.0316 µM
[10] = second compound 1 µM, first compound 0.1 µM
[11] = second compound 1 µM, first compound 0.316 µM
[12] = second compound 1 µM, first compound 1 µM
[13] = second compound 3.16 µM, first compound 0.0316 µM
[14] = second compound 3.16 µM, first compound 0.1 µM
[15] = second compound 3.16 µM, first compound 0.316 µM
[16] = second compound 3.16 µM, first compound 1 µM
[17] = second compound 10 µM, first compound 0.0316 µM
[18] = second compound 10 µM, first compound 0.1 µM
[19] = second compound 10 µM, first compound 0.316 µM
[20] = second compound 10 µM, first compound 1 µM
[21] = second compound 0.1 µM, first compound 3.16 µM
[22] = second compound 0.1 µM, first compound 10 µM
[23] = second compound 0.316 µM, first compound 3.16 µM
[24] = second compound 0.316 µM, first compound 10 µM
[25] = second compound 1 µM, first compound 3.16 µM
[26] = second compound 1 µM, first compound 10 µM
[27] = second compound 3.16 µM, first compound 3.16 µM
[28] = second compound 3.16 µM, first compound 10 µM
[29] = second compound 10 µM, first compound 3.16 µM
[30] = second compound 10 µM, first compound 10 µM
[31] = second compound 0.1 µM, first compound 0.00949 µM
[32] = second compound 0.1 µM, first compound 0.03 µM
[33] = second compound 0.1 µM, first compound 0.0949 µM
[34] = second compound 0.1 µM, first compound 0.3 µM
[35] = second compound 0.316 µM, first compound 0.00949 µM
[36] = second compound 0.316 µM, first compound 0.03 µM
[37] = second compound 0.316 µM, first compound 0.0949 µM
[38] = second compound 0.316 µM, first compound 0.3 µM
[39] = second compound 1 µM, first compound 0.00949 µM
[40] = second compound 1 µM, first compound 0.03 µM
[41] = second compound 1 µM, first compound 0.0949 µM
[42] = second compound 1 µM, first compound 0.3 µM
[43] = second compound 3.16 µM, first compound 0.00949 µM
[44] = second compound 3.16 µM, first compound 0.03 µM
[45] = second compound 3.16 µM, first compound 0.0949 µM
[46] = second compound 3.16 µM, first compound 0.3 µM
[47] = second compound 10 µM, first compound 0.00949 µM
[48] = second compound 10 µM, first compound 0.03 µM
[49] = second compound 10 µM, first compound 0.0949 µM
[50] = second compound 10 µM, first compound 0.3 µM
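Note: spheroids exposed to agents for seven days before viability read.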

CC1COCCN1c1cc(-c2ccnn2C)c2ccnc(-c3ccn[nH]3)c2n1 (stereo not given) + Cc1cncc(-c2nc(NCCc3c[nH]c4ccccc34)c3ncn(C(C)C)c3n2)c1
IC50 (second compound 0.1 µM): > 1000 nM
IC50 (second compound 0.316 µM): > 1000 nM
IC50 (second compound 1 µM): > 1000 nM
IC50 (second compound 3.16 µM): > 1000 nM
IC50 (second compound 10 µM): < 3.16 nM
viability, T/C (second compound 0.1 µM, first compound 0.00316 µM): 87.9%
viability, T/C (second compound 0.1 µM, first compound 0.01 µM): 123%
viability, T/C [1]: 112%
viability, T/C [2]: 89.6%
viability, T/C [3]: 81.2%
viability, T/C [4]: 54.9%
viability, T/C (second compound 0.316 µM, first compound 0.00316 µM): 121%
viability, T/C (second compound 0.316 µM, first compound 0.01 µM): 150%
viability, T/C [5]: 114%
viability, T/C [6]: 81.3%
viability, T/C [7]: 81.6%
viability, T/C [8]: 70.2%
viability, T/C (second compound 1 µM, first compound 0.00316 µM): 114%
viability, T/C (second compound 1 µM, first compound 0.01 µM): 122%
viability, T/C [9]: 137%
viability, T/C [10]: 88%
viability, T/C [11]: 72.2%
viability, T/C [12]: 53.3%
viability, T/C (second compound 3.16 µM, first compound 0.00316 µM): 67.2%
viability, T/C (second compound 3.16 µM, first compound 0.01 µM): 60.2%
viability, T/C [13]: 77.6%
viability, T/C [14]: 70.6%
viability, T/C [15]: 67.8%
viability, T/C [16]: 72.2%
viability, T/C (second compound 10 µM, first compound 0.00316 µM): 4.75%
viability, T/C (second compound 10 µM, first compound 0.01 µM): 5.66%
viability, T/C [17]: 2.57%
viability, T/C [18]: 2.16%
viability, T/C [19]: 2.35%
viability, T/C [20]: 5.11%

CC1COCCN1c1cc(C2(S(C)(=N)=O)CC2)nc(-c2ccnc3[nH]ccc23)n1 (stereo not given) + Cc1cncc(-c2nc(NCCc3c[nH]c4ccccc34)c3ncn(C(C)C)c3n2)c1
IC50 (second compound 0.1 µM): > 10000 nM
IC50 (second compound 0.316 µM): > 10000 nM
IC50 (second compound 1 µM): > 10000 nM
IC50 (second compound 3.16 µM): > 10000 nM
IC50 (second compound 10 µM): < 31.6 nM
viability, T/C [1]: 112%
viability, T/C [2]: 126%
viability, T/C [3]: 90.9%
viability, T/C [4]: 93.4%
viability, T/C [21]: 93.2%
viability, T/C [22]: 74.2%
viability, T/C [5]: 98.4%
viability, T/C [6]: 127%
viability, T/C [7]: 127%
viability, T/C [8]: 110%
viability, T/C [23]: 70.2%
viability, T/C [24]: 86.7%
viability, T/C [9]: 111%
viability, T/C [10]: 109%
viability, T/C [11]: 108%
viability, T/C [12]: 96.4%
viability, T/C [25]: 87.5%
viability, T/C [26]: 73.5%
viability, T/C [13]: 80.5%
viability, T/C [14]: 92.5%
viability, T/C [15]: 89.8%
viability, T/C [16]: 109%
viability, T/C [27]: 87.1%
viability, T/C [28]: 81.1%
viability, T/C [17]: 8.69%
viability, T/C [18]: 13.3%
viability, T/C [19]: 17.8%
viability, T/C [20]: 14.7%
viability, T/C [29]: 8.67%
viability, T/C [30]: 5.3%

COc1ccc([C@@H](O)c2cc(-c3ncnc4cc(N5CCOCC5)ccc34)c(F)cc2Cl)nn1 + Cc1cncc(-c2nc(NCCc3c[nH]c4ccccc34)c3ncn(C(C)C)c3n2)c1
IC50 (second compound 0.1 µM): 8950 nM
IC50 (second compound 0.316 µM): 7370 nM
IC50 (second compound 1 µM): > 10000 nM
IC50 (second compound 3.16 µM): > 10000 nM
IC50 (second compound 10 µM): < 31.6 nM
viability, T/C [1]: 152%
viability, T/C [2]: 91.7%
viability, T/C [3]: 96.2%
viability, T/C [4]: 89.5%
viability, T/C [21]: 63.5%
viability, T/C [22]: 51.4%
viability, T/C [5]: 116%
viability, T/C [6]: 125%
viability, T/C [7]: 81.6%
viability, T/C [8]: 94.9%
viability, T/C [23]: 81%
viability, T/C [24]: 38.1%
viability, T/C [9]: 137%
viability, T/C [10]: 112%
viability, T/C [11]: 119%
viability, T/C [12]: 86.1%
viability, T/C [25]: 79.2%
viability, T/C [26]: 64.2%
viability, T/C [13]: 108%
viability, T/C [14]: 80.2%
viability, T/C [15]: 86.3%
viability, T/C [16]: 69.8%
viability, T/C [27]: 43.4%
viability, T/C [28]: 58.5%
viability, T/C [17]: 3.67%
viability, T/C [18]: 4.08%
viability, T/C [19]: 3.62%
viability, T/C [20]: 2.73%
viability, T/C [29]: 3.64%
viability, T/C [30]: 3.08%

Nc1ncn(C2CC(O)C(CO)S2)c(=O)n1 (stereo not given) + Cc1cncc(-c2nc(NCCc3c[nH]c4ccccc34)c3ncn(C(C)C)c3n2)c1
IC50 (second compound 0.1 µM): > 300 nM
IC50 (second compound 0.316 µM): > 300 nM
IC50 (second compound 1 µM): > 300 nM
IC50 (second compound 3.16 µM): > 300 nM
IC50 (second compound 10 µM): < 0.949 nM
viability, T/C (second compound 0.1 µM, first compound 0.000949 µM): 122%
viability, T/C (second compound 0.1 µM, first compound 0.003 µM): 113%
viability, T/C [31]: 122%
viability, T/C [32]: 95.6%
viability, T/C [33]: 118%
viability, T/C [34]: 126%
viability, T/C (second compound 0.316 µM, first compound 0.000949 µM): 113%
viability, T/C (second compound 0.316 µM, first compound 0.003 µM): 102%
viability, T/C [35]: 114%
viability, T/C [36]: 99%
viability, T/C [37]: 129%
viability, T/C [38]: 130%
viability, T/C (second compound 1 µM, first compound 0.000949 µM): 92.1%
viability, T/C (second compound 1 µM, first compound 0.003 µM): 134%
viability, T/C [39]: 103%
viability, T/C [40]: 111%
viability, T/C [41]: 131%
viability, T/C [42]: 126%
viability, T/C (second compound 3.16 µM, first compound 0.000949 µM): 113%
viability, T/C (second compound 3.16 µM, first compound 0.003 µM): 99.5%
viability, T/C [43]: 130%
viability, T/C [44]: 98.2%
viability, T/C [45]: 94.9%
viability, T/C [46]: 120%
viability, T/C (second compound 10 µM, first compound 0.000949 µM): 12.2%
viability, T/C (second compound 10 µM, first compound 0.003 µM): 16.9%
viability, T/C [47]: 9.06%
viability, T/C [48]: 13.4%
viability, T/C [49]: 11.2%
viability, T/C [50]: 10.7%

O=C(C=Cn1cnc(-c2cc(C(F)(F)F)cc(C(F)(F)F)c2)n1)NNc1cnccn1 + Cc1cncc(-c2nc(NCCc3c[nH]c4ccccc34)c3ncn(C(C)C)c3n2)c1
IC50 (second compound 0.1 µM): > 3000 nM
IC50 (second compound 0.316 µM): 639 nM
IC50 (second compound 1 µM): 1100 nM
IC50 (second compound 3.16 µM): 740 nM
IC50 (second compound 10 µM): < 9.49 nM
viability, T/C [31]: 86.6%
viability, T/C [32]: 94.1%
viability, T/C [33]: 66.5%
viability, T/C [34]: 56.2%
viability, T/C (second compound 0.1 µM, first compound 0.949 µM): 53.2%
viability, T/C (second compound 0.1 µM, first compound 3 µM): 44.3%
viability, T/C [35]: 95.5%
viability, T/C [36]: 90.8%
viability, T/C [37]: 110%
viability, T/C [38]: 64.9%
viability, T/C (second compound 0.316 µM, first compound 0.949 µM): 47.1%
viability, T/C (second compound 0.316 µM, first compound 3 µM): 37.3%
viability, T/C [39]: 112%
viability, T/C [40]: 94.7%
viability, T/C [41]: 80.7%
viability, T/C [42]: 79.7%
viability, T/C (second compound 1 µM, first compound 0.949 µM): 50.4%
viability, T/C (second compound 1 µM, first compound 3 µM): 31.4%
viability, T/C [43]: 120%
viability, T/C [44]: 103%
viability, T/C [45]: 93.1%
viability, T/C [46]: 60.6%
viability, T/C (second compound 3.16 µM, first compound 0.949 µM): 42.3%
viability, T/C (second compound 3.16 µM, first compound 3 µM): 47.6%
viability, T/C [47]: 16.9%
viability, T/C [48]: 7.37%
viability, T/C [49]: 15%
viability, T/C [50]: 20.5%
viability, T/C (second compound 10 µM, first compound 0.949 µM): 22.1%
viability, T/C (second compound 10 µM, first compound 3 µM): 25.8%
